Reference: patent publication US20050282818A1, “Ubiquitin ligase inhibitors” (Rigel Pharmaceuticals, Inc., priority 2004, published 2005)
Where two headings read alike, the source gives them in different places.

Experiments:
HCT116 cells = experiment: Cell proliferation PAD assay, HCT116; type: cell-based; conditions: Homo sapiens, 48 hours
From the text: (§1) Table 3 illustrates the inhibitory activity of the compounds of the invention determined by the PAD assay described above in a number of cell types. Apoptosis was not
(§2) Cell lines used are available from American Type Culture Collection (ATCC), for example, cell cultures containing A549 (ATCC# CCL-185), HeLa (ATCC# CCL-2), HCT116 ATTC# CCL-247), and H1299 (ATCC# CRL-5803) cells were maintained in T175 flasks following the ATCC recommended media and handling procedures. […] A 20,000 cells/ml solution was made for plating. Cells were plated in black Packard 96 well plates by placing 100 μl per well (2,000 cells per well). […] The definitions of the cell types used are as follows: A549 is lung carcinoma; HI 299 is non-small cell lung carcinoma; HI 155 is non-small cell lung carcinoma; AsPC-1 is pancreatic adenocarcinoma; Caov-3 is ovarian adenocarcinoma; COLO 205 is colorectal adenocarcinoma; DLD-1 colorectal adenocarcinoma; HCT116 is colorectal carcinoma; DU 145 is prostate carcinoma; ES-2 is ovarian clear cell carcinoma; H460 is large cell lung carcinoma; HELA is cervical adenocarcinoma; MIA PaCa-2 is pancreatice carcinoma; OVCAR-3 is ovarian adenocarcinoma; OVCAR8 is ovarian carcinoma; PC3 is prostate adenocarcinoma; SK-OV-3 is ovarian adenocarcinoma; SU86.86 is pancreatic carcinoma; TOV-21G is avarian clear cell carcinoma; U2OS is bone osteosarcoma; is ASPC-I is pancreatic adenocarcinoma; BXPC-3 is pabcreatic adenocarcinoma; HL60 is promyeloblast promyelocytic leukemia; K562 is bone marrow chronic myelogenous leukemia; L1210 is mouse lymphocytic leukemia; MOLT3 is T lymphoblast acute lymphoblastic leukemia; MOLT4 is T lymphoblast acute lymphoblastic leukemia; SW620 is colorectal adenocarcinoma; THP-1 is monocyte acute monocytic leukemia; U937 is histiocytic lymphoma; and UACC-257 is melanoma.
(§3) Compounds and additional media were added 24 hours after cell plating. A compound master plate was created with concentrations 500 times greater than the final concentration added to the cells. All compound testing was done in duplicate using 6.3 fold dilutions starting with 10 mM. All outside wells (and 4 internal wells) were DMSO controls. Taxol and at least one additional control were run on all plates. Three microliters of the compound master plate were added to deep well blocks containing 750 μl of RPMI media. One hundred microliters were transferred from the compound/media deep well blocks to the plated cells resulting in a 500 fold dilution of the compounds. Cells were grown at 37° C., 5% CO2 for 48 hours.
(§4) Cells to be analyzed by photography were fixed and stained. One hundred microliters of media were removed and 100 μl of 9.3% formamide was added to each well. Plates were left on the benchtop for 45 minutes. A staining solution containing 1.55 μl of 1 mg/ml DAPI added to 18.75 ml PBS was warmed for 15 minutes at 37° C. The cells were aspirated prior to washing with 100 μl of PBS. Seventy microliters of PBS were aspirated and 170 μl of the DAPI solution were added to each well of fixed cells. Plates were left at room temperature for one hour then aspirated and washed twice with 100 μl of PBS. The stained cells were left at 4° C. for a minimum of 16 hours before photographic analysis with Array Scan II (Cellomics). Analysis of the photographic images to determine numbers of live cells (proliferation), apoptotic cells and dead cells, were according to the methods described in U.S. Utility patent application Ser. No. 10/652,440, which incorporated herein in its entirety.

A549 cells = experiment: Cell proliferation PAD assay, A549; type: cell-based; conditions: Homo sapiens, 48 hours
In short: (§5)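 Cells plated at 2,000/well; compounds added 24 h later as 6.3-fold dilutions from a 10 mM master stock, diluted 500-fold into wells, in duplicate. After 48 h at 37 °C, 5% CO2, cells were formamide-fixed, DAPI-stained and imaged to count live, apoptotic and dead cells.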

H1299 cells = experiment: Cell proliferation PAD assay, H1299; type: cell-based; conditions: Homo sapiens, 48 hours
In short: as §5

DLD-1 cells = experiment: Cell proliferation PAD assay, DLD-1; type: cell-based; conditions: Homo sapiens, DLD1 cells, 6pt, 48 hours
From the text: as §1, §2, §3, §4

HELA cells = experiment: Cell proliferation PAD assay, HeLa; type: cell-based; conditions: Homo sapiens, 6pt, 48 hours
From the text: as §1, §2, §3, §4

U2OS cells = experiment: Cell proliferation PAD assay, U2OS; type: cell-based; conditions: Homo sapiens, 6pt, 48 hours
From the text: as §1, §2, §3, §4

TRAF6/Uev1A/Ubc13 = molecular target: T1, TRAF6/Uev1A/Ubc13 (Homo sapiens, UniProt Q9Y4K3); experiment: TRAF6/Uev1A/Ubc13 plate-based ubiquitin ligase assay; type: biochemical
T1 sequence (Q9Y4K3 1-522): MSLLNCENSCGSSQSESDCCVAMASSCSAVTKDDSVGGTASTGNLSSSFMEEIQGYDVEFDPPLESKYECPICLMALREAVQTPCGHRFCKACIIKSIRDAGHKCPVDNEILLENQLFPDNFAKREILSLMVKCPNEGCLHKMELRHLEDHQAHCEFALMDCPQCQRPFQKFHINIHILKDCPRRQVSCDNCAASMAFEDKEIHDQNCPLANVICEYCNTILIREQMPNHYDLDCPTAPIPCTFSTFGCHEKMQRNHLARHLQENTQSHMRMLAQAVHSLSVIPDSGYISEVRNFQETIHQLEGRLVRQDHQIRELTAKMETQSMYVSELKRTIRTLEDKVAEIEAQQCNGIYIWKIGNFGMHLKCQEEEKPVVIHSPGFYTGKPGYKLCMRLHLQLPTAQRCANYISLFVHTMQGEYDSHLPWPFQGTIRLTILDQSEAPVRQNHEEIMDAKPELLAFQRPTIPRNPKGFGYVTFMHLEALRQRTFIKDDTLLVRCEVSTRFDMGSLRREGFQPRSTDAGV
In short: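 Ligase activity was read as luminescence from anti-Flag/HRP detection of Flag-ubiquitin bound to casein-blocked Ni-plates alongside His-ubiquitin after a 1 h room-temperature reaction. Buffer: 62.5 mM Tris pH 7.5, 6.25 mM MgCl2, 1.0 mM DTT, 2 μM ATP; E1, Uev1a/Ubc13 and TRAF6 added last to start. IC50s derived across compound concentrations.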

MIA PaCa-2 cells = experiment: Cell proliferation PAD assay, MIA PaCa-2; type: cell-based; conditions: Homo sapiens, Miapaca2 cells, 9pt, 48 hours
From the text: as §1
(§6) Cell lines used are available from American Type Culture Collection (ATCC), for example, cell cultures containing A549 (ATCC# CCL-185), HeLa (ATCC# CCL-2), HCT116 ATTC# CCL-247), and H1299 (ATCC# CRL-5803) cells were maintained in T175 flasks following the ATCC recommended media and handling procedures. […] A 20,000 cells/ml solution was made for plating. Cells were plated in black Packard 96 well plates by placing 100 μl per well (2,000 cells per well). […]
(§7) Cells to be analyzed by photography were fixed and stained. […]

COLO 205 cells = experiment: Cell proliferation PAD assay, COLO 205; type: cell-based; conditions: Homo sapiens, Colo205 cells, 9pt, 48 hours
From the text: as §1, §6, §7

[1] = HCT-116, 6pt, read-out: HCT116 6pt
[2] = NCI-H1299, 3pt, read-out: H1299 3pt
[3] = NCI-H1299, 6pt, read-out: H1299 6pt

SMILES | IC50 (HCT116 cells; [1]) [nM] | IC50 (A549 cells; 3pt, read-out: A549 3pt) [µM] | IC50 (A549 cells; 6pt, read-out: A549 6pt) [µM] | IC50 (H1299 cells; [2]) [nM] | IC50 (H1299 cells; [3]) [nM] | IC50 (DLD-1 cells) [nM] | IC50 (HELA cells) [µM] | IC50 (U2OS cells) [nM] | IC50 (TRAF6/Uev1A/Ubc13) [µM] | IC50 (HCT116 cells; HCT-116, 9pt, read-out: HCT116 9pt) [nM] | IC50 (MIA PaCa-2 cells) [nM] | IC50 (COLO 205 cells) [µM]
Cc1cccc(N2CCN(S(=O)(=O)c3ccc(Cl)c4nonc34)CC2)n1 [compound 194, 4-chloro-7-{[4-(6-methylpyridin-2-yl)piperazin-1-yl]sulfonyl}-2,1,3-benzoxadiazole] |  | ≥ 20 | ≥ 20 | 1000 to 20000 | ≥ 20000 |  |  | < 1000 | ≥ 20 |  |  | 
O=S(=O)(c1ccc(F)c2nonc12)N1CCN(c2ncc(C(F)(F)F)cc2Cl)CC1 [compound 164, 4-({4-[3-chloro-5-(trifluoromethyl)pyridin-2-yl]piperazin-1-yl}sulfonyl)-7-fluoro-2,1,3-benzoxadiazole] |  | 1 to 20 | 1 to 20 | 1000 to 20000 | 1000 to 20000 |  |  | ≥ 20000 | < 1 |  |  | 
O=S(=O)(c1ccc(Cl)c2nonc12)N1CCN(c2ncc(C(F)(F)F)cc2Cl)CC1 [compound 169, 4-chloro-7-({4-[3-chloro-5-(trifluoromethyl)pyridin-2-yl]piperazin-1-yl}sulfonyl)-2,1,3-benzoxadiazole] |  | ≥ 20 | 1 to 20 | ≥ 20000 | < 1000 |  |  | < 1000 | 1 to 20 |  |  | 
O=S(=O)(Nc1ccc2cn[nH]c2c1)c1c(Cl)ccc2nonc12 [compound 219, 5-chloro-N-1H-indazol-6-yl-2,1,3-benzoxadiazole-4-sulfonamide] | < 1000 | 1 to 20 | ≥ 20 | 1000 to 20000 | < 1000 | < 1000 | ≥ 20 | < 1000 | 1 to 20 | < 1000 | < 1000 | 1 to 20
O=S(=O)(Nc1ccc2[nH]ncc2c1)c1ccc(Cl)c2nonc12 [compound 218, 7-chloro-N-1H-indazol-5-yl-2,1,3-benzoxadiazole-4-sulfonamide] | 1000 to 20000 | ≥ 20 | ≥ 20 | 1000 to 20000 | 1000 to 20000 | 1000 to 20000 | 1 to 20 | 1000 to 20000 | ≥ 20 |  |  | 

More lines, now with the values ahead:

IC50 (HCT116 cells; [1]) [nM] | IC50 (A549 cells; 3pt, read-out: A549 3pt) [µM] | IC50 (A549 cells; 6pt, read-out: A549 6pt) [µM] | IC50 (H1299 cells; [2]) [nM] | IC50 (H1299 cells; [3]) [nM] | IC50 (DLD-1 cells) [nM] | IC50 (HELA cells) [µM] | IC50 (U2OS cells) [nM] | IC50 (TRAF6/Uev1A/Ubc13) [µM] | IC50 (HCT116 cells; HCT-116, 9pt, read-out: HCT116 9pt) [nM] | IC50 (MIA PaCa-2 cells) [nM] | IC50 (COLO 205 cells) [µM] | SMILES
1000 to 20000 | 1 to 20 | ≥ 20 | < 1000 | < 1000 | < 1000 | 1 to 20 | < 1000 | ≥ 20 |  |  |  | CC1CN(S(=O)(=O)c2c(Cl)ccc3nonc23)CC(C)O1 (centres unmarked) [compound 204, 5-chloro-4-[(2,6-dimethylmorpholin-4-yl)sulfonyl]-2,1,3-benzoxadiazole]
1000 to 20000 | 1 to 20 | < 1 | 1000 to 20000 | < 1000 | < 1000 | 1 to 20 | < 1000 |  |  |  |  | O=S(=O)(Nc1cccc2cccnc12)c1cccc2nonc12 [compound 64, N-quinolin-8-yl-2,1,3-benzoxadiazole-4-sulfonamide]
